Data published in patent publication US20230355605A1, “DRUG FOR ENHANCING FIBRINOLYTIC SYSTEM, AND USE THEREFOR” (priority 2020, published 2023).

Assays:
[1] = tested on: chronic-phase chronic myeloid leukemia (CML) patients; experiment: Phase II study in combination with TKI in chronic-phase CML patients (4 weeks); format: in vivo, human
Source text: The present compound and a tyrosine kinase inhibitor (hereinafter referred to as “TKI”) were used in combination and repeatedly administered orally to patients with chronic-phase chronic myeloid leukemia (CML patients) to evaluate the safety of the present compound and the effectiveness of the present compound against CML.
Oral administration of the TKI, which is a drug used in combination, was continued for a total of 12 weeks, including the 8-week observation period. The safety analysis set (SAS) and the full analysis set (FAS) each consisted of the 21 patients, and the per protocol set (PPS) consisted of 18 patients.

[2] = tested on: mouse model of bleomycin-induced pulmonary fibrosis; experiment: Mouse model of bleomycin-induced pulmonary fibrosis; format: in vivo
Procedure: The improvement effect of the present compound on pulmonary fibrosis (remodeling after lung damage) was evaluated using a mouse model of bleomycin-induced pulmonary fibrosis. […] Because of similarity of histopathological changes to pulmonary fibrosis in humans, this mouse model is widely used for the evaluation of the drug efficacy.
To a fibrosis mouse model (fibrosis model group) given a single dose of bleomycin (1.2 mg/mL), the present compound (0.75 mg/kg/day) was orally administered for 21 days (present compound administration group, n = 9), and biochemical analysis of the lungs and measurement of clinical conditions of the lungs were performed on day 22. For comparison, instead of the present compound, the solvent used to dissolve the present compound was administered to a fibrosis model group in the same manner (vehicle group, n = 10), and biochemical analysis and measurement of clinical conditions of the lungs were performed. As a positive control group, a dexamethasone administration group (0.25 mg/kg administration, n = 9) was used. The biochemical analysis was performed using lung hydroxyproline values as an index. The clinical conditions of the lungs were evaluated by performing Masson’s trichrome staining and calculating Ashcroft scores according to a report of Ashcroft et al. (Ashcroft T et al., J Clin Pathol, 1988; 41:467). The clinical conditions were confirmed by comparing a normal mouse group (normal group, n = 10) with the vehicle group (n = 10), and the improvement effect of the present compound on pulmonary fibrosis was evaluated by comparing the vehicle group (n = 10) with the present compound administration group (n = 9). Differences between the mean values of the groups were tested by the Bonferroni selected pairs test using Prism 4 (GraphPad Software).
Table 1 and FIG. 3(A) and FIG. 3(B) show the results of comparisons of the lung hydroxyproline values and the Ashcroft scores in the groups. The mean values of the groups are expressed as mean±SD, and examination was performed at a 5% significance level.

t-PA = t-PA activity in blood, phase I repeated oral dose study; format: in vivo, human
Procedure: The pharmacological activities (PAI-1 activity and t-PA activity) were evaluated using blood collected from the subjects before and after administration of the present compound or the placebo as test samples. Blood was collected before administration and 2, 4, and 8 hours after administration on the first day of the experiment (day 1) and day 7 after the start of the experiment, and on the other days, blood was collected once a day before administration (only before administration on days 2 to 6, day 8, and day 11 after the start of administration).
After collecting blood samples from the subjects, the samples were treated with 0.5 M sodium citrate (pH of 4.3) and centrifuged at 4° C., 2,500 g for 15 minutes to obtain plasma. The collected plasma was used for measurement of t-PA activity and stored frozen at -80° C. until measurement.
The t-PA activity was measured using a ZYMUPHEN tPA Activity kit (produced by HYPHEN BioMed). In this system, a plasma sample collected from a subject is reacted with human plasminogen to form plasmin by the action of tPA, the plasmin is reacted with a substrate specific to plasmin, and pNA, which is a degradation product produced, is measured by the absorbance at a wavelength of 405 nm with a plate reader.

cynomolgus monkeys = experiment: 39-week repeated oral dose toxicity study in cynomolgus monkeys; format: in vivo; conditions: 10, 30, 100 mg/kg oral, 39 weeks
Procedure: A GLP-compliant 39-week repeated oral dose study was performed in cynomolgus monkeys at dosages of 10, 30, and 100 mg/kg.

rats = experiment: Reproductive and developmental toxicity study (fertility and early embryogenesis); format: in vivo, rat; conditions: oral, male and female rats
Source text: The effect of oral administration of the present compound on fertility and early embryogenesis up to implantation was examined using rats. Specifically, the present compound was orally administered to male and female rats for 2 weeks before mating, during mating, until the day before necropsy for the males, and until day 7 of gestation for the females, and the effect on fertility and early embryogenesis of the parents was examined. During the study period, the general conditions, body weights, and food consumption of all of the animals were observed and measured, and a fertility test was performed for the males and females. For the females, an estrous cycle test was performed, and a Cesarean section test was performed at day 13 of gestation. In the females, necropsy was performed at the time of Cesarean section, and in the males, necropsy was performed after completion of the Cesarean section of females.

[3] = format: physicochemical
Procedure: The present compound (yellowish white powder) was prepared in the following shipping packaging form and then subjected to an accelerated stability study (40° C., 75% RH, 6 months).
Inner package: A double polyethylene bag (100 × 200 mm) was filled with the present compound and sealed with a zip tie. Outer package: The double polyethylene bag filled with the present compound was placed in a fiber drum, and the fiber drum was sealed.
The present compound was stored in the above packaging form under the conditions of 40° C.12° C. and 75% RH15% RH for 6 months. At points after 1 month, 3 months, and 6 months, appearance observation, an identification test (ultraviolet spectrum, infrared absorption spectrum, flame reaction), water content analysis (water absorption), analysis of the content of the present compound, and a purity test (impurity profile) were performed to evaluate the stability of the present compound.

[4] = human, in vivo
Procedure: A placebo-controlled repeated oral dose study was performed to examine the safety, pharmacokinetics, and pharmacodynamics of the present compound during repeated oral dose administration in healthy Japanese adult males (subjects).
The oral dosages were 60 mg (step 1) and 120 mg (step 2) per day, and the number of subjects per step was 9 (6 subjects in the present compound group and 3 subjects in the placebo group). The transition from one step to the next was made after confirming safety. The present compound or the placebo was orally administered once daily after breakfast for 7 days.
After administration of the present compound and the placebo, the following items were evaluated in each subject. Safety: vital signs (axillary temperature, blood pressure while seated, and pulse rate while seated), 12-lead electrocardiogram, laboratory tests (hematological test, blood biochemical test, blood coagulation test, urinalysis, and fecal test), and adverse events • Pharmacokinetics: plasma concentration of the unchanged drug and metabolite concentration • Pharmacological activities: PAI-1 activity and t-PA activity

[5] = day 22, present compound 0.75 mg/kg/day oral 21 days, dexamethasone 0.25 mg/kg, mean±SD

## O=C(Nc1ccc(Cl)cc1C(=O)[O-])c1cccc(-c2cccc3cccnc23)c1.[Na+] [present compound, sodium 5-chloro-2-({ [3-(quinolin-8-yl)phenyl]carbonyl}amino)benzoate]
[1]; 120 mg once daily 4 weeks in combination with TKI
  cumulative DMR achievement rate (MR 4.5, BCR-ABL^IS≤0.0032%): increased
[1]; 120 mg once daily 4 weeks with TKI, 21 patients (SAS)
  adverse events causally related to the investigational drug: No adverse events
[2]; 5% significance level
  Ashcroft score compared with vehicle group: significantly lower
  lung hydroxyproline value compared with vehicle group: significantly lower
[2]; [5]
  Ashcroft score: 2.2±0.3
  Lung hydroxyproline value: 58.7±10.1 µg/left lung
t-PA; 60 mg/day oral, days 1 and 7
  t-PA activity in blood vs placebo: neither PAI-1 activity nor t-PA activity was different
t-PA; 120 mg/day oral
  time after administration of maximal increase in t-PA activity: 8 h
t-PA; 120 mg/day oral, days 1 and 7
  t-PA activity in blood: increased
Cynomolgus monkeys
  deaths during the administration period: No deaths
  effect on general condition, body weight, food consumption, ophthalmology, ECG, hematology, urinalysis, necropsy, organ weights: No effect
rats
  no-observed-adverse-effect level in the parent animals, including fertility: 1000 mg/kg/day
  no-observed-adverse-effect level with respect to early embryogenesis: 1000 mg/kg/day
[3]; 6 months
  period stable in the accelerated stability study: at least 6 months
[3]; 40° C., 75% RH, after 1, 3 and 6 months, shipping packaging
  change from the state before storage (appearance, identification, water content, content, purity): no change
[4]
  AUC on day 7 compared with day 1: increased
  Tmax, t½ 0-24h, and Cmax′: not affected by repeated administration
